# US8895578B2, “Carboxamide, sulfonamide and amine compounds and methods for using the same” (Rigel Pharmaceuticals, Inc., priority 2007, dated 2014)
# Target: AMPK
# Experiment: AMPK activation, enzyme-linked immunosorbent assay
# Format: biochemical
# Conditions: Table 2, ELISA
# Method: Compounds 1-54 were assayed for their ability to activate AMPK using an enzyme-linked immunosorbent assay.
# Compounds 55-62 of Table 1 were assayed for their ability to activate AMPK using an enzyme-linked immunosorbent assay.
# Compounds 63-66 of Table 1 were assayed for their ability to activate AMPK using an enzyme-linked immunosorbent assay.
# Compounds 67-71 of Table 1 were assayed for their ability to activate AMPK using an enzyme-linked immunosorbent assay.
# Compound 72 of Table 1 was assayed for its ability to activate AMPK using an enzyme-linked immunosorbent assay.
row,EC50,Compound
1,1 to 5 µM,"O=C(NC1CCN(S(=O)(=O)c2cccc(C(F)(F)F)c2)CC1)c1ccc2[nH]c3c(c2c1)CN(Cc1ccc(C(F)(F)F)cc1)CC3 [Compound 30, 2-(4-(trifluoromethyl)benzyl)-N-(1-(3-(trifluoro-methyl)phenylsulfonyl)piperidin-4-yl)-2,3,4,5-tetrahydro-1H-pyrido [4,3-b]indole-8-carboxamide]"
2,1 to 5 µM,"O=C(NC1CCN(S(=O)(=O)c2ccc(Cl)cc2)CC1)c1ccc2[nH]c3c(c2c1)CN(Cc1ccc(C(F)(F)F)cc1)CC3 [Compound 32, N-(1-(4-chlorophenyl-sulfonyl)piperidin-4-yl)-2-(4-(trifluoromethyl)benzyl)-2,3,4,5-tetrahydro-1H-pyrido[4,3-b]indole-8-carboxamide]"
3,1 to 5 µM,"O=C(NC1CCN(C(=O)Nc2ccc(C(F)(F)F)cc2)CC1)c1ccc2[nH]c3c(c2c1)CN(Cc1ccc(C(F)(F)F)cc1)CC3 [Compound 33, 2-(4-(trifluoromethyl)benzyl)-N-(1-(4-(trifluoro-methyl)phenylcarbamoyl)piperidin-4-yl)-2,3,4,5-tetrahydro-1H-pyrido[4,3-b]indole-8-carboxamide]"
4,10 to 50 µM,"O=C(NC1CCN(S(=O)(=O)c2ccc(F)cc2)CC1)c1ccc2[nH]c3c(c2c1)CN(c1ccc(F)cc1)CC3 [Compound 35, 2-(4-fluorophenyl)-N-(1-(4-fluorophenylsulfonyl)piperidin-4-yl)-2,3,4,5-tetrahydro-1H-pyrido[4,3-b] indole-8-carboxamide]"
5,> 100 µM,"O=C(NC1CCN(Cc2cccnc2)CC1)c1ccc2[nH]c3c(c2c1)CN(c1ccc(F)cc1)CC3 [Compound 36, 2-(4-fluorophenyl)-N-(1-(pyridin-3-ylmethyl)piperidin-4-yl)-2,3,4,5-tetrahydro-1H-pyrido[4,3-b]indole-8-carboxamide]"
6,5 to 10 µM,"O=C(NC1CCN(Cc2ccc(C(F)(F)F)cc2)CC1)c1ccc2[nH]c3c(c2c1)CN(c1ccc(F)cc1)CC3 [Compound 37, 2-(4-fluorophenyl)-N-(1-(4-(trifluoromethyl)benzyl)piperidin-4-yl)-2,3,4,5-tetrahydro-1H-pyrido[4,3-b] indole-8-carboxamide]"
7,10 to 50 µM,"CC(C)(C)OC(=O)N1CCC(NC(=O)c2ccc3[nH]c4c(c3c2)CN(c2ccc(F)cc2)CC4)CC1 [Compound 38, tert-butyl 4-(2-(4-fluorophenyl)-2,3,4,5-tetrahydro-1H-pyrido[4,3-b]indole-8-carboxamido) piperidine-1-carboxylate]"
8,10 to 50 µM,"O=C(NC1CCN(C(=O)c2ccc(F)cc2)CC1)c1ccc2[nH]c3c(c2c1)CN(c1ccc(F)cc1)CC3 [Compound 39, N-(1-(4-fluorobenzoyl)piperidin-4-yl)-2-(4-fluorophenyl)-2,3,4,5-tetrahydro-1H-pyrido [4,3-b]indole-8-carboxamide]"
9,> 100 µM,"O=C(NC1CCN(C(=O)c2cccnc2)CC1)c1ccc2[nH]c3c(c2c1)CN(c1ccc(F)cc1)CC3 [Compound 40, 2-(4-fluorophenyl)-N-(1-nicotinoylpiperidin-4-yl)-2,3,4,5-tetrahydro-1H-pyrido[4,3-b]indole-8-carboxamide]"
10,10 to 50 µM,"O=C(NC1CCN(C(=O)c2ccc(C(F)(F)F)cc2)CC1)c1ccc2[nH]c3c(c2c1)CN(c1ccc(F)cc1)CC3 [Compound 41, 2-(4-fluorophenyl)-N-(1-(4-(trifluoromethyl)benzoyl)piperidin-4-yl)-2,3,4,5-tetrahydro-1H-pyrido[4,3-b] indole-8-carboxamide]"
11,> 100 µM,"CC(C)(C)OC(=O)N1CCC(NC(=O)c2ccc3[nH]c4c(c3c2)CN(Cc2ccc(C(N)=O)cc2)CC4)CC1 [Compound 43, tert-butyl 4-(2-(4-carbamoyl-benzyl)-2,3,4,5-tetrahydro-1H-pyrido[4,3-b]indole-8-carboxamido)piperidine-1-carboxylate]"
12,10 to 50 µM,"N#Cc1ccc(CN2CCC(NC(=O)c3ccc4[nH]c5c(c4c3)CN(Cc3ccc(C(N)=O)cc3)CC5)CC2)cc1 [Compound 44, 2-(4-carbamoylbenzyl)-N-(1-(4-cyanobenzyl)piperidin-4-yl)-2,3,4,5-tetrahydro-1H-pyrido[4,3-b]indole-8-carboxamide]"
13,> 100 µM,"NC(=O)c1ccc(CN2CCc3[nH]c4ccc(C(=O)NC5CCN(Cc6ccncc6)CC5)cc4c3C2)cc1 [Compound 45, 2-(4-carbamoylbenzyl)-N-(1-(pyridin-4-ylmethyl)piperidin-4-yl)-2,3,4,5-tetrahydro-1H-pyrido [4,3-b]indole-8-carboxamide]"
14,> 100 µM,"NC(=O)c1ccc(CN2CCc3[nH]c4ccc(C(=O)NC5CCN(C(=O)c6ccncc6)CC5)cc4c3C2)cc1 [Compound 46, 2-(4-carbamoylbenzyl)-N-(1-isonicotinoylpiperidin-4-yl)-2,3,4,5-tetrahydro-1H-pyrido[4,3-b]indole-8-carboxamide]"
15,10 to 50 µM,"NC(=O)c1ccc(CN2CCc3[nH]c4ccc(C(=O)NC5CCN(Cc6ccc(C(F)(F)F)cc6)CC5)cc4c3C2)cc1 [Compound 47, 2-(4-carbamoylbenzyl)-N-(1-(4-(trifluoromethyl)benzyl)piperidin-4-yl)-2,3,4,5-tetrahydro-1H-pyrido[4,3-b]indole-8-carboxamide]"
16,> 100 µM,"NC(=O)c1ccc(CN2CCc3[nH]c4ccc(C(=O)NC5CCN(Cc6ccc(F)cc6)CC5)cc4c3C2)cc1 [Compound 48, 2-(4-carbamoylbenzyl)-N-(1-(4-fluorobenzyl)piperidin-4-yl)-2,3,4,5-tetrahydro-1H-pyrido[4,3-b] indole-8-carboxamide]"
17,> 100 µM,"NC(=O)c1ccc(CN2CCC(NC(=O)c3ccc4[nH]c5c(c4c3)CN(Cc3ccc(C(N)=O)cc3)CC5)CC2)cc1 [Compound 49, 2-(4-carbamoylbenzyl)-N-(1-(4-carbamoylbenzyl)piperidin-4-yl)-2,3,4,5-tetrahydro-1H-pyrido [4,3-b]indole-8-carboxamide]"
18,< 0.5 µM,"O=C(NC1CCN(Cc2ccncc2)CC1)c1ccc2[nH]c3c(c2c1)CN(Cc1ccc(C(F)(F)F)cc1)CC3 [Compound 50, N-(1-(pyridin-4-ylmethyl)piperidin-4-yl)-2-(4-(trifluoromethyl)benzyl)-2,3,4,5-tetrahydro-1H-pyrido[4,3-b]indole-8-carboxamide]"
19,0.5 to 1 µM,"O=C(NC1CCN(C(=O)c2ccncc2)CC1)c1ccc2[nH]c3c(c2c1)CN(Cc1ccc(C(F)(F)F)cc1)CC3 [Compound 51, N-(1-isonicotinoyl-piperidin-4-yl)-2-(4-(trifluoromethyl)benzyl)-2,3,4,5-tetrahydro-1H-pyrido[4,3-b]indole-8-carboxamide]"
20,1 to 5 µM,"NC(=O)c1ccc(CN2CCC(NC(=O)c3ccc4[nH]c5c(c4c3)CN(Cc3ccc(C(F)(F)F)cc3)CC5)CC2)cc1 [Compound 52, N-(1-(4-carbamoylbenzyl)piperidin-4-yl)-2-(4-(trifluoromethyl)benzyl)-2,3,4,5-tetrahydro-1H-pyrido[4,3-b]indole-8-carboxamide]"
21,10 to 50 µM,"Cn1cnc(CN2CCC(NC(=O)c3ccc4[nH]c5c(c4c3)CN(Cc3ccc(C(F)(F)F)cc3)CC5)CC2)c1 [Compound 53, N-(1-((1-methyl-1H-imidazol-4-yl)methyl)piperidin-4-yl)-2-(4-(trifluoromethyl)benzyl)-2,3,4,5-tetrahydro-1H-pyrido[4,3-b]indole-8-carboxamide]"
22,< 0.5 µM,"O=C(NC1CCN(Cc2cocn2)CC1)c1ccc2[nH]c3c(c2c1)CN(Cc1ccc(C(F)(F)F)cc1)CC3 [Compound 54, N-(1-(oxazol-4-ylmethyl)piperidin-4-yl)-2-(4-(trifluoromethyl)benzyl)-2,3,4,5-tetrahydro-1H-pyrido[4,3-b]indole-8-carboxamide]"

# Same assay, conditions: Table 3, ELISA
row,EC50,Compound
1,< 0.1 µM,"O=C(NC1CCN(Cc2ccccc2)CC1)c1ccc(CN2CCN(Cc3ccccc3)CC2)cc1 [Compound 55, 4-((4-benzylpiperazin-1-yl)methyl)-N-(1-benzyl-piperidin-4-yl)benzamide]"
2,1 to 10 µM,"O=C(NC1CCN(Cc2ccccc2)CC1)c1ccc(CN2CCN(CC3CCCCC3)CC2)cc1 [Compound 56, N-(1-benzylpiperidin-4-yl)-4-((4-(cyclohexyl-methyl)piperazin-1-yl)methyl)benzamide]"
3,< 0.1 µM,"O=C(NC1CCN(Cc2ccccc2)CC1)c1ccc(CN2CCN(c3ccc(C(F)(F)F)cn3)CC2)cc1 [Compound 57, N-(1-benzylpiperidin-4-yl)-4-((4-(5-(trifluoro-methyl)pyridin-2-yl)piperazin-1-yl)methyl) benzamide]"
4,1 to 10 µM,"O=C(NC1CCN(Cc2ccccc2)CC1)c1ccc(CN2CCN(c3ccccn3)CC2)cc1 [Compound 58, N-(1-benzylpiperidin-4-yl)-4-((4-(pyridin-2-yl)piperazin-1-yl)methyl) benzamide]"
5,0.1 to 0.5 µM,"O=C(NC1CCN(Cc2ccncc2)CC1)c1ccc(CN2CCN(Cc3ccccc3)CC2)cc1 [Compound 59, 4-((4-benzylpiperazin-1-yl)methyl)-N-(1-(pyridin-4-ylmethyl)piperidin-4-yl)benzamide]"
6,0.1 to 0.5 µM,"O=C(NC1CCN(Cc2cccnc2)CC1)c1ccc(CN2CCN(Cc3ccccc3)CC2)cc1 [Compound 60, 4-((4-benzylpiperazin-1-yl)methyl)-N-(1-(pyridin-3-ylmethyl)piperidin-4-yl) benzamide]"
7,< 0.1 µM,"N#Cc1ccc(CN2CCC(NC(=O)c3ccc(CN4CCN(Cc5ccccc5)CC4)cc3)CC2)cc1 [Compound 61, 4-((4-benzylpiperazin-1-yl)methyl)-N-(1-(4-cyanobenzyl)piperidin-4-yl)benzamide]"
8,< 0.1 µM,"O=C(NC1CCN(Cc2ccc(C(F)(F)F)cc2)CC1)c1ccc(CN2CCN(Cc3ccccc3)CC2)cc1 [Compound 62, 4-((4-benzylpiperazin-1-yl)methyl)-N-(1-(4-trifluoromethylbenzyl)piperidin-4-yl) benzamide]"

# Same assay, conditions: Table 4, ELISA
row,EC50,Compound
1,< 0.5 µM,"O=C(NC1CCN(Cc2ccccc2)CC1)c1ccc2cc(OC3CCN(Cc4ccc(C(F)(F)F)cc4)CC3)ccc2c1 [Compound 63, N-(1-benzylpiperidin-4-yl)-6-(1-(4-(trifluoro-methyl)benzyl)piperidin-4-yloxy)-2-naphthamide]"
